Measured values as given in patent US12157730B2, “Heteroaryl derivative, method for producing same, and pharmaceutical composition comprising same as effective component” (VORONOI INC., priority 2019, dated 2024).

The compounds below were run against T1, Ba/F3 cell EGFR Exon20 ins NPH (Homo sapiens, UniProt P00533, INS773NPH) (assay: Ba/F3 cell proliferation suppression, EGFR Exon20 ins NPH). Settings: GI50 class; Ba/F3 cell line with NPH inserted at Exon20 of EGFR; 72 hours.
T1 construct: expressed in transfected cells; host or cells: Ba/F3
Format: cell-based
Procedure, shortened: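 Cells were seeded 24 h before dosing and then treated for 72 hours with compound at final concentrations of 0.3 nM to 50 um. Live cells were measured by CellTiter-Glo luminescence, and GI50 values were derived from growth ratio relative to control across three repeats.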

| SMILES | Ba/F3 (NPH) Activity |
| --- | --- |
| C=CC(=O)Nc1cc(Nc2cc(N3OCC[C@@H]3c3cccc(Cl)c3C)ncn2)c(OC)cc1N1CCC(N2C[C@@H]3C[C@H]2CO3)CC1 [compound 531, N-(2-(4-((1S,4S)-2-oxa-5-azabicyclo[2.2.1]heptane-5-yl)piperidine-1-yl)-5-((6-((R)-3-(3-chloro-2-methylphenyl)isoxazolidine-2-yl)pyrimidine-4-yl)amino)-4-methoxyphenyl) acrylamide] | A (GI50 < 50 nM) |
| C=CC(=O)Nc1cc(Nc2cc(N3OCC[C@@H]3c3ccccc3)ncn2)c(OC)cc1N1CCC(N2C[C@H]3C[C@@H]2CO3)CC1 [Example 53, N-(2-(4-((1R,4R)-2-oxa-5-azabicyclo[2.2.1]heptane-5-yl)piperidine-1-yl)-4-methoxy-5-((6-((R)-3-phenylisoxazolidine-2-yl)pyrimidine-4-yl)amino)phenyl) acrylamide] | A (GI50 < 50 nM) |
| C=CC(=O)Nc1cc(Nc2cc(N3OCC[C@@H]3c3cccc(Cl)c3Cl)ncn2)c(OC)cc1N1CCC(N2CCN(C3CC3)CC2)CC1 [Example 162, N-(2-(4-(4-cyclopropylpiperazine-1-yl)piperidine-1-yl)-5-((6-((R)-3-(2,3-dichlorophenyl)isoxazolidine-2-yl)pyrimidine-4-yl)amino)-4-methoxyphenyl) acrylamide] | A (GI50 < 50 nM) |
| C=CC(=O)Nc1cc(Nc2cc(N3OCC[C@@H]3c3cccc(Cl)c3C)ncn2)c(OC)cc1N1CCN(CC)CC1 [compound 585, N-(5-((6-((R)-3-(3-chloro-2-methylphenyl)isoxazolidine-2-yl)pyrimidine-4-yl)amino)-2-(4-ethylpiperazine-1-yl)-4-methoxyphenyl) acrylamide] | A (GI50 < 50 nM) |
| C=CC(=O)Nc1cc(Nc2cc(N3OCC[C@@H]3c3cccc(Cl)c3Cl)ncn2)c(OC)cc1N1CCN(CCN(C)C)CC1 [compound 566, N-(5-((6-((R)-3-(2,3-dichlorophenyl)isoxazolidine-2-yl)pyrimidine-4-yl)amino)-2-(4-(2-(dimethylamino)ethyl)piperazine-1-yl)-4-methoxyphenyl) acrylamide] | B (50 nM ≤ GI50 < 500 nM) |
| C=CC(=O)Nc1cc(Nc2cc(N3OCC[C@@H]3Cc3ccccc3)ncn2)c(OC)cc1N1CCN(C2COC2)CC1 [compound 958, N-(5-((6-((S)-3-benzylisoxazolidine-2-yl)pyrimidine-4-yl)amino)-4-methoxy-2-(4-(oxetane-3-yl)piperazine-1-yl)phenyl)acrylamide] | A (GI50 < 50 nM) |
| C=CC(=O)Nc1cc(Nc2cc(N3OCC[C@@H]3c3cc(F)ccc3F)ncn2)c(OC)cc1N1CCN(C2CC2)C[C@H]1C [compound 880, N-(2-((R)-4-cyclopropyl-2-methylpiperazine-1-yl)-5-((6-((R)-3-(2,5-difluorophenyl)isoxazolidine-2-yl)pyrimidine-4-yl)amino)-4-methoxyphenyl) acrylamide] | A (GI50 < 50 nM) |
| C=CC(=O)Nc1cc(Nc2cc(N3OCC[C@@H]3c3cccc(F)c3F)ncn2)c(OC)cc1N1CCN(C)[C@@H](C)C1 [compound 883, N-(5-((6-((R)-3-(2,3-difluorophenyl)isoxazolidine-2-yl)pyrimidine-4-yl)amino)-2-((S)-3,4-dimethylpiperazine-1-yl)-4-methoxyphenyl) acrylamide] | A (GI50 < 50 nM) |
| C=CC(=O)Nc1cc(Nc2cc(N3OCC[C@@H]3c3c(F)ccc(F)c3F)ncn2)c(OC)cc1N1CCC(N2CCO[C@@H](C)C2)CC1 [compound 645, N-(4-methoxy-2-(4-((S)-2-methylmorpholino)piperidine-1-yl)-5-((6-((R)-3-(2,3,6-trifluorophenyl)isoxazolidine-2-yl)pyrimidine-4-yl)amino)phenyl)acrylamide] | A (GI50 < 50 nM) |
| C=CC(=O)Nc1cc(Nc2cc(N3OCC[C@@H]3c3cc(F)cc(Cl)c3)ncn2)c(OC)cc1N1CCC(N2C[C@H]3CCN(C)[C@H]3C2)CC1 [compound 539, N-(5-((6-((R)-3-(3-chloro-5-fluorophenyl)isoxazolidine-2-yl)pyrimidine-4-yl)amino)-4-methoxy-2-(4-((3aR,6aR)-1-methylhexahydropyrrolo [3,4-b]pyrrole-5(1H)-yl)piperidine-1-yl)phenyl)acrylamide] | A (GI50 < 50 nM) |
| C=CC(=O)Nc1cc(Nc2cc(N3OCC[C@@H]3c3cccc(C(F)(F)F)c3)ncn2)c(OC)cc1N1CCC(N2CCOCC2)CC1 [compound 504, N-(4-methoxy-2-(4-morpholinopiperidine-1-yl)-5-((6-((R)-3-(3-(trifluoromethyl)phenyl)isoxazolidine-2-yl)pyrimidine-4-yl)amino)phenyl)acrylamide] | A (GI50 < 50 nM) |
| C=CC(=O)Nc1cc(Nc2cc(N3OCC[C@@H]3c3cccc(F)c3)ncn2)c(OC)cc1N1C[C@@H]2C[C@H]1CO2 [compound 832, N-(2-((1S,4S)-2-oxa-5-azabicyclo[2.2.1]heptane-5-yl)-5-((6-((R)-3-(3-fluorophenyl)isoxazolidine-2-yl)pyrimidine-4-yl)amino)-4-methoxyphenyl) acrylamide] | A (GI50 < 50 nM) |
| C=CC(=O)Nc1cc(Nc2cc(N3OCC[C@@H]3c3ccc(F)c(F)c3F)ncn2)c(OC)cc1N1CCN(C)CC1 [compound 572, N-(4-methoxy-2-(4-methylpiperazine-1-yl)-5-((6-((R)-3-(2,3,4-trifluorophenyl)isoxazolidine-2-yl)pyrimidine-4-yl)amino)phenyl) acrylamide] | A (GI50 < 50 nM) |
| C=CC(=O)Nc1cc(Nc2cc(N3OCC[C@@H]3Cc3ccccc3)ncn2)c(OC)cc1N1CCN(CCN(C)C)CC1 [compound 961, N-(5-((6-((S)-3-benzylisoxazolidine-2-yl)pyrimidine-4-yl)amino)-2-(4-(2-(dimethylamino)ethyl)piperazine-1-yl)-4-methoxyphenyl) acrylamide] | A (GI50 < 50 nM) |
| C=CC(=O)Nc1cc(Nc2cc(N3OCC[C@@H]3c3cc(F)cc(F)c3)ncn2)c(OC)cc1N1CCC(N2CCO[C@H](C)C2)CC1 [compound 758, N-(5-((6-((R)-3-(3,5-difluorophenyl)isoxazolidine-2-yl)pyrimidine-4-yl)amino)-4-methoxy-2-(4-((R)-2-methylmorpholino)piperidine-1-yl)phenyl) acrylamide] | B (50 nM ≤ GI50 < 500 nM) |
| C=CC(=O)Nc1cc(Nc2cc(N3OCC[C@@H]3c3cccc(F)c3F)ncn2)c(OC)cc1N1CCN(C2CC2)CC1 [compound 333, N-(2-(4-cyclopropylpiperazine-1-yl)-5-((6-((R)-3-(2,3-difluorophenyl)isoxazolidine-2-yl)pyrimidine-4-yl)amino)-4-methoxyphenyl) acrylamide] | A (GI50 < 50 nM) |
| C=CC(=O)Nc1cc(Nc2cc(N3OCC[C@@H]3c3cc(F)ccc3F)ncn2)c(OC)cc1N1CCC(N2C[C@@H](C)N(CC)[C@@H](C)C2)CC1 [compound 841, N-(5-((6-((R)-3-(2,5-difluorophenyl)isoxazolidine-2-yl)pyrimidine-4-yl)amino)-2-(4-((3S,5R)-4-ethyl-3,5-dimethylpiperazine-1-yl)piperidine-1-yl)-4-methoxyphenyl) acrylamide] | A (GI50 < 50 nM) |
| C=CC(=O)Nc1cc(Nc2cc(N3OCC[C@@H]3c3cccc(Cl)c3F)ncn2)c(OC)cc1N1CCN(C)CC1 [compound 789, N-(5-((6-((R)-3-(3-chloro-2-fluorophenyl)isoxazolidine-2-yl)pyrimidine-4-yl)amino)-4-methoxy-2-(4-methylpiperazine-1-yl)phenyl)acrylamide] | A (GI50 < 50 nM) |
| C=CC(=O)Nc1cc(Nc2cc(N3OCC[C@@H]3c3cccc(Cl)c3)ncn2)c(OC)cc1N1CC[C@H](N(C)C)C1 [compound 468, N-(5-((6-((R)-3-(3-chlorophenyl)isoxazolidine-2-yl)pyrimidine-4-yl)amino)-2-((S)-3-(dimethylamino)pyrolidine-1-yl)-4-methoxyphenyl) acrylamide] | A (GI50 < 50 nM) |
| C=CC(=O)Nc1cc(Nc2cc(N3OCC[C@@H]3Cc3cccc(Cl)c3F)ncn2)c(OC)cc1N1CCN(C2CC2)CC1 [compound 1017, N-(5-((6-((S)-3-(3-chloro-2-fluorobenzyl)isoxazolidine-2-yl)pyrimidine-4-yl)amino)-2-(4-cyclopropylpiperazine-1-yl)-4-methoxyphenyl) acrylamide] | A (GI50 < 50 nM) |
| C=CC(=O)Nc1cc(Nc2cc(N3OCC[C@@H]3c3ccc(F)c(F)c3)ncn2)c(OC)cc1N1CCC(N2CCC(N(C)C)CC2)CC1 [compound 546, N-(5-((6-((R)-3-(3,4-difluorophenyl)isoxazolidine-2-yl)pyrimidine-4-yl)amino)-2-(4-(dimethylamino)-[1,4'-bipiperidine]-1'-yl)-4-methoxyphenyl) acrylamide] | A (GI50 < 50 nM) |
| C=CC(=O)Nc1cc(Nc2cc(N3OCC[C@@H]3Cc3cccc(Cl)c3OC)ncn2)c(OC)cc1N1CCC(N2CCN(C3CC3)CC2)CC1 [compound 1054, N-(5-((6-((S)-3-(3-chloro-2-methoxybenzyl)isoxazolidine-2-yl)pyrimidine-4-yl)amino)-2-(4-(4-cyclopropylpiperazine-1-yl)piperidine-1-yl)-4-methoxyphenyl) acrylamide] | A (GI50 < 50 nM) |
| C=CC(=O)Nc1cc(Nc2cc(N3OCC[C@@H]3c3cccc(Cl)c3F)ncn2)c(OC)cc1N1CCC(N2C[C@H](C)N(C3CC3)C[C@@H]2C)CC1 [Example 128, N-(5-((6-((R)-3-(3-chloro-2-fluorophenyl)isoxazolidine-2-yl)pyrimidine-4-yl)amino)-2-(4-((2S,5S)-4-cyclopropyl-2,5-dimethylpiperazine-1-yl)piperidine-1-yl)-4-methoxyphenyl) acrylamide] | A (GI50 < 50 nM) |
